The conditions of data set [1]: cited from earlier work.
Data set [2] has as its system ccRCC cell lines A498 and KIJ265T and TNBC cell lines MDA231 and BT20. As to the kind of experiment: Drug treatments and proliferation assay (cell counting, Coulter Particle Counter). The data set is classed as cell-based, Human. As to the method:
Human renal cell carcinoma cell lines A498 (ATCC, Manassas, Va.) and KIJ265T (derived from primary tumor site stage 4 human renal cell carcinoma patient tissue established in the Copland laboratory), as well as triple negative breast cancer cell lines BT-20 (ATCC) and MDA-231 (ATCC) were maintained in phenol red free DMEM medium (Cellgro, Herndon, Va.) supplemented with 10% FBS (Hyclone, Logan, Utah) and penicillin-streptomycin (Invitrogen, Carlsbad, Calif.) at 37° C. in humidified conditions with 5% CO2.
DMSO was used for vehicle control. […] Cells were trypsinized 24 hours later and counted.

The test system of a further data set is KIJ265T ccRCC cell line. As to the kind of experiment: Cell death analysis via flow cytometry (propidium iodide). It is filed as cell-based, Human. The settings on record: 5 nM romidepsin and/or 1 μM decitabine, 72 hour treatment. Here is the method:
Cells were treated with the optimal combinatorial therapy and appropriate control groups were prepared. After 72 hour treatment both adhered and floating cells were collected, centrifuged at 4° C., and washed using DPBS. Cells were centrifuged and re-suspended in 1× cold binding buffer (BD Pharmingen, San Jose, Calif.) at a concentration of 1×10^6 cells per ml. Cells were stained for 10 minutes with propidium iodide (BD Pharmingen), and FACS analysis was performed using Accuri C6 flow cytometer (Accuri, Ann Arbor, Mich.). Unstained cells were used as controls for setting the cell population parameters.

The next data set relates to BT20 cell line. Described as above. The data set is classed as cell-based, Human. The conditions noted are these: 5 nM romidepsin and/or 1 μM decitabine, 72 hour treatment.
Another data set relates to MDA231 and KIJ265T cells. Nature of the data set: Proliferation of cells treated with recombinant human sFRP1. It is filed as cell-based. The conditions noted are these: escalating doses of recombinant sFRP1 in the media, 72 hours. Here is the method: For the treatment of cells with recombinant human sFRP1, MDA231 and KIJ265T cells were seeded in a 96-well culture plate at 5000 cells per well in 100 μl DMEM supplemented with PSA and 10% FBS. After overnight incubation, cells were washed in PBS and 100 μl of serum free DMEM containing the final concentration of sFRP1 was added. The cells were incubated for 6 hours Serum was re-introduced to these wells to a final concentration of 2% FBS. Plates were incubated for 72 hours before cells were trypsinized and counted.

Data set [3] relates to PARP cleavage in KIJ265T and MDA-231 parent cell lines. Nature of the data set: PARP cleavage after recombinant human sFRP1. The conditions noted are these: single dose of 1.4 nM sFRP1. It is filed as cell-based.

We go through four molecules from US20130244950A1, “COMBINATION THERAPY FOR CHEMORESISTANT CANCERS” (CELGENE CORPORATION, priority 2011, published 2013).

Read-outs that look alike come from different tables or passages of the source.

In the case of `Nc1ncn([C@H]2C[C@H](O)[C@@H](CO)O2)c(=O)n1` [decitabine, 4-amino-1-(2-deoxy-β-D-erythro-pentofuranosyl)-1,3,5-triazin-2(1H)one], the solubility result in data set [1] (dimethylsulfoxide (DMSO)) is listed as “soluble”; in data set [1] (ethanol/water (50/50), methanol/water (50/50) and methanol), “slightly soluble”; in data set [1] (water), “sparingly soluble”. Further, in data set [2] (decitabine alone, all tested doses (0.01 μM to 10 μM), 72 hours post drug exposure), the “effect on cell proliferation” value is “minimal effect on cell proliferation”. Moreover, in the data set with KIJ265T ccRCC cell line, the “cell death induced above DMSO treated controls” value was found to be 6.3%.

Turning to `C/C=C1\NC(=O)[C@H]2CSSCC/C=C/[C@H](CC(=O)N[C@H](C(C)C)C(=O)N2)OC(=O)[C@H](C(C)C)NC1=O` [romidepsin, (1S,4S,7Z,10S,16E,21R)-7-ethylidene-4,21-bis(1-methylethyl)-2-oxa-12,13-dithia-5,8,20,23-tetrazabicyclo[8.7.6]tricos-16-ene-3,6,9,19,22-pentone], in the data set with BT20 cell line, the “cell death induced compared to DMSO controls” value is on record as 5.8%. Besides, the “cell death in single treatment samples” value in data set [2] (5 nM romidepsin, 3 day exposure) is roughly 50%. In addition, the “inhibition of cell proliferation” value in data set [2] (romidepsin alone, 2.5-100 nM dose range, 72 hours post drug exposure) is “significant inhibition of cell proliferation”.

Take `Nc1ncn([C@@H]2O[C@H](CO)[C@@H](O)[C@H]2O)c(=O)n1` [azacitidine, 4-amino-1-β-D-ribofuranozyl-s-triazin-2(1H)-one]: the solubility result in data set [1] (acetone, ethanol and methyl ketone) was “insoluble”; in data set [1] (dimethylsulfoxide (DMSO)) it was “soluble”; in data set [1] (ethanol/water (50/50), propylene glycol and polyethylene glycol) it was “slightly soluble”; in data set [1] (water, water-saturated octanol, 5% dextrose in water, N-methyl-2-pyrrolidone, normal saline and 5% Tween 80 in water), “sparingly soluble”.

B1: recombinant human sFRP1: recombinant human secreted frizzled related protein 1, negative regulator of Wnt signaling (protein, UniProt Q8N474 32-314, looked up)
Secreted frizzled-related …: SEYDYVSFQSDIGPYQSGRFYTKPPQCVDIPADLRLCHNVGYKKMVLPNLLEHETMAEVKQQASSWVPLLNKNCHAGTQVFLCSLFAPVCLDRPIYPCRWLCEAVRDSCEPVMQFFGFYWPEMLKCDKFPEGDVCIAMTPPNATEASKPQGTTVCPPCDNELKSEAIIEHLCASEFALRMKIKEVKKENGDKKIVPKKKKPLKLGPIKKKDLKKLVLYLKNGADCPCHQLDNLSHHFLIMGRKVKSQYLLTAIHKWDKKNKEFKNFMKKMKNHECPTFQSVFK
For B1, in the data set on MDA231 and KIJ265T cells, the cell proliferation entry is “dose-dependent decrease”. The “induction of apoptosis (PARP cleavage)” value in data set [3] is reported as “induction of apoptosis as seen by PARP cleavage”.
